The numbers were not newly measured in US20030108495A1, “Cosmetic compositions containing 2,2-dihydroxymethy1-1,3-dioxolanes” (priority 2001, published 2003), which cites them from elsewhere.

For this data set, the system named is moisturized human skin. Conditions: cosmetic composition applied to moisturized human skin.

As for `O=C(CO)CO` [DHA, 1,3-dihydroxyacetone], the “time after initial application until tan appearance (brown-colored melanoidins)” value is given as “approximately five”.
